Source: patent publication US20240254115A1 (ACONDICIONAMIENTO TARRASENSE, priority 2021, published 2024)

How the values were obtained:
[1] = target: T1, human σ2/TMEM97 receptor (Homo sapiens, UniProt Q5BJF2); assay: Binding assay to human σ2/TMEM97 receptor; conditions: transfected HEK-293 membranes, 10 nM [3H]-DTG, 25° C. 120 minutes; + may also stand for 1-50% inhibition at 1 or 10 μM; read-out: Binding σ-2 Ki
T1 construct: expressed in transfected cells; host or cells: HEK-293
Procedure, shortened: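 Membranes from transfected HEK-293 cells (15 µg) were incubated with 10 nM [3H]-DTG in 50 mM Tris-HCl pH 8.0 for 120 min at 25 °C, with 10 µM haloperidol defining non-specific binding. Filtration and scintillation counting followed. Compounds tested as % inhibition at 1 or 10 µM, or at five concentrations for Ki.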

[2] = target: T2, human σ1 receptor (Homo sapiens, UniProt Q99720); assay: Human σ1 receptor radioligand assay; conditions: transfected HEK-293 membranes, 5 nM [3H](+)-pentazocine, 37° C. 120 minutes; + may also stand for 1-50% inhibition at 1 or 10 μM; read-out: Binding σ-1 Ki
T2 construct: expressed in transfected cells; host or cells: HEK-293
T2 sequence (Q99720 whole entry): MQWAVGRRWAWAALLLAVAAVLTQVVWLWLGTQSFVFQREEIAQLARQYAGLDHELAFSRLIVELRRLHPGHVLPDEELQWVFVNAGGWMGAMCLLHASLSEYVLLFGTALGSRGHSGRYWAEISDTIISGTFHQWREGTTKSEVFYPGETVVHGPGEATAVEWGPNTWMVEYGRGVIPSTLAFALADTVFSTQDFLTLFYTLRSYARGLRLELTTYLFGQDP
Procedure, shortened: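 Ki was derived from five test concentrations, or % inhibition was measured at a single 1 or 10 μM dose, against 5 nM [3H](+)-pentazocine. Incubation was 120 min at 37° C in 50 mM Tris-HCl pH 8 with 7 μg HEK-293 membranes, and 10 μM haloperidol set non-specific binding. Bound radioactivity was counted after filtration.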

T1 sequence (Q5BJF2 whole entry): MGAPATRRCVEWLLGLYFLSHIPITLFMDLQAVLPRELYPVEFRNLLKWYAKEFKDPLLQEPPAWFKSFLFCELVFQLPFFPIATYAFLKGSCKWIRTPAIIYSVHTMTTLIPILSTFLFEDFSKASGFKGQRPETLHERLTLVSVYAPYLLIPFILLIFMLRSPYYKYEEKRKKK

Ki [1] | Ki [2] | Structure (SMILES)
< 100 nM | 100 to 500 nM | CN(Cc1ccccc1)[C@H]1CC[C@H](NS(=O)(=O)c2ccc(N3CCC(F)(F)CC3)nc2)CC1 [Example 175, N-((1r,4r)-4-(Benzyl(methyl)amino)cyclohexyl)-6-(4,4-difluoropiperidin-1-yl)pyridine-3-sulfonamide]
< 100 nM | 100 to 500 nM | CC(C)(C)CCN1CCC2(CC1)CCN(S(=O)(=O)c1ccc(N3CCCC3=O)nc1)CC2 [Example 133, 1-(5-((9-(3,3-Dimethylbutyl)-3,9-diazaspiro[5.5]undecan-3-yl)sulfonyl)pyridin-2-yl)pyrrolidin-2-one]
< 100 nM | > 1000 nM | N#Cc1cccc(CN2CCC3(CC2)CCN(S(=O)(=O)c2ccc(N4CCOCC4)nc2)CC3)c1 [Example 48, 3-((9-((6-Morpholinopyridin-3-yl)sulfonyl)-3,9-diazaspiro[5.5]undecan-3-yl)methyl)benzonitrile]
500 to 1000 nM | 500 to 1000 nM | CN(CC1CCOCC1)[C@H]1CC[C@H](NS(=O)(=O)c2ccc(N3CCC4(CCOC4)CC3)nc2)CC1 [Example 183, N-((1r,4r)-4-(Methyl((tetrahydro-2H-pyran-4-yl)methyl)amino)cyclohexyl)-6-(2-oxa-8-azaspiro[4.5]decan-8-yl)pyridine-3-sulfonamide]
< 100 nM | < 100 nM | CCC(=O)Nc1ccc(S(=O)(=O)N2CCCC3(CCN(CCC(C)(C)C)CC3)C2)cn1 [Example 106, N-(5-((9-(3,3-Dimethylbutyl)-2,9-diazaspiro[5.5]undecan-2-yl)sulfonyl)pyridin-2-yl)propionamide]
> 1000 nM | < 100 nM | N#Cc1ccc(CN2CC[C@@H](NS(=O)(=O)c3ccc(N4CCOCC4)nc3)C2)cc1 [Example 37, (R)-N-(1-(4-Cyanobenzyl)pyrrolidin-3-yl)-6-morpholinopyridine-3-sulfonamide]
< 100 nM | < 100 nM | N#Cc1ccc(CN2CCC3(CCCN(S(=O)(=O)c4ccc(N5CCOC5=O)nc4)C3)CC2)c(F)c1 [Example 125, 3-Fluoro-4-((2-((6-(2-oxooxazolidin-3-yl)pyridin-3-yl)sulfonyl)-2,9-diazaspiro[5.5]undecan-9-yl)methyl)benzonitrile]
< 100 nM | 100 to 500 nM | O=S(=O)(c1ccc(N2CCOCC2)nc1)N1CCCC2(CCN(Cc3ccncc3)CC2)C1 [Example 63, 4-(5-((9-(Pyridin-4-ylmethyl)-2,9-diazaspiro[5.5]undecan-2-yl)sulfonyl)pyridin-2-yl)morpholine]
< 100 nM | < 100 nM | O=C1OCCN1c1ccc(S(=O)(=O)N2CCCC3(CCN(CC4CCOCC4)CC3)C2)cn1 [Example 158, 3-(5-((9-((Tetrahydro-2H-pyran-4-yl)methyl)-2,9-diazaspiro[5.5]undecan-2-yl)sulfonyl)pyridin-2-yl)oxazolidin-2-one]
100 to 500 nM | 500 to 1000 nM | O=S(=O)(c1ccc(N2CCOCC2)nc1)N1CCC2(CCN(Cc3ccccc3)CC2)C1 [Example 45, 4-(5-((8-Benzyl-2,8-diazaspiro[4.5]decan-2-yl)sulfonyl)pyridin-2-yl)morpholine]
100 to 500 nM | < 100 nM | O=S(=O)(c1ccc(N2CCC(F)(F)CC2)nc1)N1CCC2(CCCN(CC3CCOCC3)C2)CC1 [Example 84, 9-((6-(4,4-Difluoropiperidin-1-yl)pyridin-3-yl)sulfonyl)-2-((tetrahydro-2H-pyran-4-yl)methyl)-2,9-diazaspiro[5.5]undecane]
> 1000 nM | < 100 nM | C[C@@H]1CN(c2ccc(S(=O)(=O)N[C@H]3CCN(Cc4ccccc4)C3)cn2)C[C@H](C)O1 [Example 20, N—((S)-1-Benzylpyrrolidin-3-yl)-6-((2R,6S)-2,6-dimethylmorpholino)pyridine-3-sulfonamide]
< 100 nM | 100 to 500 nM | O=S(=O)(c1ccc(N2CCOCC2)nc1)N1CCCC2(CCN(Cc3ccccc3)CC2)C1 [Example 61, 4-(5-((9-Benzyl-2,9-diazaspiro[5.5]undecan-2-yl)sulfonyl)pyridin-2-yl)morpholine]
< 100 nM | > 1000 nM | COc1ccc(CNC[C@H]2CCCN(S(=O)(=O)c3ccc(N4CCOCC4)nc3)C2)cn1 [Example 33, (R)-1-(6-Methoxypyridin-3-yl)-N-((1-((6-morpholinopyridin-3-yl)sulfonyl)piperidin-3-yl)methyl) methanamine]
< 100 nM | 100 to 500 nM | CC(C)(C)CCN1CCC2(CCCN(S(=O)(=O)c3ccc(N4CCS(=O)(=O)CC4)nc3)C2)CC1 [Example 118, 4-(5-((9-(3,3-Dimethylbutyl)-2,9-diazaspiro[5.5]undecan-2-yl)sulfonyl)pyridin-2-yl)thiomorpholine 1,1-dioxide]
> 1000 nM | < 100 nM | O=S(=O)(N[C@@H]1CCN(Cc2ccccc2)C1)c1ccc(N2C[C@@H]3C[C@H]2CO3)nc1 [Example 23, N-((R)-1-Benzylpyrrolidin-3-yl)-6-((1S,4S)-2-oxa-5-azabicyclo[2.2.1]heptan-5-yl)pyridine-3-sulfonamide]

Ki [1] | Ki [2] | Structure (SMILES)
< 100 nM | 500 to 1000 nM | CC(C)CN1CCC2(CC1)CCN(S(=O)(=O)c1ccc(C(F)(F)F)nc1)CC2 [Example 91, 3-Isobutyl-9-((6-(trifluoromethyl)pyridin-3-yl)sulfonyl)-3,9-diazaspiro[5.5]undecane]
< 100 nM | 100 to 500 nM | CC(C)(C)CCN1CCC2(CC1)CCN(S(=O)(=O)c1ccc(N3CCS(=O)(=O)CC3)nc1)CC2 [Example 69, 4-(5-((9-(3,3-Dimethylbutyl)-3,9-diazaspiro[5.5]undecan-3-yl)sulfonyl)pyridin-2-yl)thiomorpholine 1,1-dioxide]
> 1000 nM | < 100 nM | N#Cc1ccc(CN2CCC(NS(=O)(=O)c3ccc(N4CCOCC4)nc3)CC2)cc1 [Example 11, N-(1-(4-Cyanobenzyl)piperidin-4-yl)-6-morpholinopyridine-3-sulfonamide]
< 100 nM | 500 to 1000 nM | CN(CCC(C)(C)C)[C@H]1CC[C@H](NS(=O)(=O)c2ccc(N3CCOCC3)nc2)CC1 [Example 89, N-((1r,4r)-4-((3,3-Dimethylbutyl)(methyl)amino)cyclo-hexyl)-6-morpholinopyridine-3-sulfonamide]
100 to 500 nM | > 1000 nM | O=S(=O)(c1ccc(N2CCOCC2)nc1)N1CCC2(CC1)CN(Cc1ccccc1)C2 [Example 47, 4-(5-((2-Benzyl-2,7-diazaspiro[3.5]nonan-7-yl)sulfonyl)pyridin-2-yl)morpholine]
< 100 nM | > 1000 nM | CN(Cc1cc(F)ccc1F)[C@H]1CC[C@H](NS(=O)(=O)c2ccc(N3CCC4(CCOC4)CC3)nc2)CC1 [Example 179, N-((1r,4r)-4-((2,5-Difluoro-benzyl)(methyl)amino)cyclohexyl)-6-(2-oxa-8-azaspiro[4.5]decan-8-yl)pyridine-3-sulfonamide]
< 100 nM | < 100 nM | CC(C)(C)CCN1CCC2(CCCN(S(=O)(=O)c3ccc(C4CCOCC4)nc3)C2)CC1 [Example 116, 9-(3,3-Dimethylbutyl)-2-((6-(tetrahydro-2H-pyran-4-yl)pyridin-3-yl)sulfonyl)-2,9-diazaspiro[5.5]undecane]
> 1000 nM | < 100 nM | O=S(=O)(N[C@H]1CCN(Cc2ccccc2)C1)c1ccc(N2CCOCC2)nc1 [Example 1, (S)—N-(1-Benzylpyrrolidin-3-yl)-6-morpholinopyridine-3-sulfonamide]
< 100 nM | < 100 nM | O=C1OCCN1c1ccc(S(=O)(=O)N2CCCC3(CCN(Cc4ccccc4F)CC3)C2)cn1 [Example 159, 3-(5-((9-(2-Fluorobenzyl)-2,9-diazaspiro[5.5]undecan-2-yl)sulfonyl)pyridin-2-yl)oxazolidin-2-one]
100 to 500 nM | 500 to 1000 nM | O=C1OCCN1c1ccc(S(=O)(=O)N2CCC3(CCCN(Cc4ccccc4F)C3)CC2)cn1 [Example 145, 3-(5-((2-(2-Fluorobenzyl)-2,9-diazaspiro[5.5]undecan-9-yl)sulfonyl)pyridin-2-yl)oxazolidin-2-one]
< 100 nM | < 100 nM | CC(C)CCN1CCCC2(CCN(S(=O)(=O)c3ccc(N4CCC(F)(F)CC4)nc3)CC2)C1 [Example 77, 9-((6-(4,4-Difluoropiperidin-1-yl)pyridin-3-yl)sulfonyl)-2-isopentyl-2,9-diazaspiro[5.5]undecane]
100 to 500 nM | > 1000 nM | CN(Cc1ccccc1)C1CCN(S(=O)(=O)c2ccc(N3CCOCC3)nc2)CC1 [Example 16, N-Benzyl-N-methyl-1-((6-morpholinopyridin-3-yl)sulfonyl)piperidin-4-amine]
< 100 nM | 100 to 500 nM | CC(C)(C)CCN1CCC2(CC1)CCN(S(=O)(=O)c1cnc(N3CCOC3=O)c(F)c1)CC2 [Example 140, 3-(5-((9-(3,3-Dimethylbutyl)-3,9-diazaspiro[5.5]undecan-3-yl)sulfonyl)-3-fluoropyridin-2-yl)oxazolidin-2-one]
100 to 500 nM | > 1000 nM | O=S(=O)(c1ccc(N2CCOCC2)nc1)N1CCC2(CCN(Cc3ccccc3)C2)CC1 [Example 13, 4-(5-((2-Benzyl-2,8-diazaspiro[4.5]decan-8-yl)sulfonyl)pyridin-2-yl)morpholine]
> 1000 nM | < 100 nM | CN([C@@H]1CCN(Cc2ccccc2)C1)S(=O)(=O)c1ccc(N2CCOCC2)nc1 [Example 5, (R)-N-(1-Benzylpyrrolidin-3-yl)-N-methyl-6-morpholinopyridine-3-sulfonamide]
